Assay results as given in US20220304349A1, “Steviol Glycoside Compositions for Oral Ingestion or Use” (CARGILL, Incorporated, priority 2016, published 2022).

Tests used:
[1] = Instantaneous solubility: vigorous mixing with deionized water for 10 minutes at room temperature; format: physicochemical; details: for concentration of the rebaudioside in the instantaneously soluble 0.37% solution of the fermentation composition: room temperature water; for instantaneous solubility: water, room temperature
Description: The composition can optionally be expressed in terms of the concentration of one or more steviol glycoside(s). […] Clear solutions without precipitates are considered soluble. Unless indicated otherwise herein, the term “solubility” refers to “equilibrium solubility.”
Instantaneous solubility is determined by mixing steviol glycoisde with deionized water vigorously for 10 minutes at room temperature. […] Clear solutions without precipitates are considered soluble.

[2] = Equilibrium solubility: heating in deionized water at 80° C. for 15 minutes, cooling to room temperature, observation up to 4 days; format: physicochemical; set-up: key to equilibrium solubility at stated concentration: Clear solutions without precipitates are considered soluble
Description: The composition can optionally be expressed in terms of the concentration of one or more steviol glycoside(s). […] Clear solutions without precipitates are considered soluble. Unless indicated otherwise herein, the term “solubility” refers to “equilibrium solubility.” […]

UGT 76G1 and EUGT11 = target: T1, UGT 76G1 and EUGT11 (Stevia rebaudiana, UniProt Q6VAB4); assay: Bioconversion of steviol glycosides with crude UGT enzyme preparations expressed in E. coli, LC-UV analysis; format: biochemical; details: UGT clone 76G1; 2 mM substrate fed, overnight at 30° C.
T1 construct: made in house; host or cells: E. coli XjB-autolysis BL21(DE3), pET30 vector, crude lysate
T1 sequence (Q6VAB4 1-458): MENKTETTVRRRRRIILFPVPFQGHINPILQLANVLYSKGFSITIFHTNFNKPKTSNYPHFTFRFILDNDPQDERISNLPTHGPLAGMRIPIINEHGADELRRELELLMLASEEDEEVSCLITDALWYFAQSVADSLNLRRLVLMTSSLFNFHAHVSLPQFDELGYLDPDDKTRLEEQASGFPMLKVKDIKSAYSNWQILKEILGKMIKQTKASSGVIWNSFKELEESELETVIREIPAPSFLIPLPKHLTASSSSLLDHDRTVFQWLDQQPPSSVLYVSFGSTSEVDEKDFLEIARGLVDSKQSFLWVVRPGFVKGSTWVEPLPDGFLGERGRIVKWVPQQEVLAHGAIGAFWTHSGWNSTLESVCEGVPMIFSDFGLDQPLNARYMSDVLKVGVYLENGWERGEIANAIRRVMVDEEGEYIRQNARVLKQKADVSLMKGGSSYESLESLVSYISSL
Description: The wildtype genes for UGTs EUGT11 and 76G1 are cloned individually into E. coli XjB-autolysis BL21(DE3) cells using the pET30 vector system from Novagen (EMD4 Biosciences, Madison, Wis.). All vectors use an IPTG-inducible promoter. Plasmid DNA is transformed into chemically competent cells as described by the vendor.
For in vitro assays, transformants displaying the desired antibiotic resistance are grown overnight at 30° C. in 2 mL cultures using NZCYM-media and antibiotic. The following day, the cultures are induced to a final concentration of 0.3 mM IPTG and 3 mM arabinose, and grown for 24 h at 20° C. The cells are then harvested by centrifugation at 4000 rpm for […] and resuspended in 200 μL GT-buffer (RBC Bioscience) and 3 tablets/100 ml of Complete mini, protease inhibitor (Roche), transferred to Eppendorf tubes, vortexed and frozen at −80° C. for 1.5 hour. Cells are thawed on ice, and left at room temperature for 3 minutes. When approximately half-way thawed, 15 μl of 0.14 mg/ml H2O DNase solution+30 μl 0.05M MgCl2 is added to each tube and the samples are incubated for approximately 5 minutes at room temperature. The cells are centrifuged at maximum speed for 5 minutes. One-hundred μL of supernatant (lysate) is transferred to fresh microfuge tubes, and 100 μL of glycerol is added. […]

[3] = in vivo; cited from earlier work
[4] = cited from earlier work

C=C1C[C@@]23CC[C@H]4[C@@](C)(CCC[C@@]4(C)C(=O)O[C@@H]4O[C@H](CO)[C@@H](O)[C@H](O)[C@H]4O[C@@H]4O[C@H](CO)[C@@H](O)[C@H](O)[C@H]4O)[C@@H]2CC[C@]1(O[C@@H]1O[C@H](CO)[C@@H](O)[C@H](O[C@@H]2O[C@H](CO)[C@@H](O)[C@H](O)[C@H]2O)[C@H]1O[C@@H]1O[C@H](CO)[C@@H](O)[C@H](O)[C@H]1O)C3 [Reb D, rebaudioside D]
instantaneous solubility at stated concentration ([1]; 0.08%): insoluble
instantaneous solubility at stated concentration ([1]; 0.10%): insoluble
instantaneous solubility at stated concentration ([1]; 0.15%): insoluble
instantaneous solubility at stated concentration ([1]; 0.20%): insoluble
improvement (increase) in instantaneous solubility over the pure rebaudioside ([1]; in the presence of compounds SG101-104 (fermentation derived composition)): 75%
concentration of the rebaudioside in the instantaneously soluble 0.37% solution of the fermentation composition [1]: 0.14%
concentration of the rebaudioside in the instantaneously soluble 0.37% solution of the fermentation composition ([1]; listed as reb D): about 0.14%
instantaneous solubility [1]: < 0.08%
instantaneous solubility ([1]; listed as rebaudioside D): less than 0.08%
equilibrium solubility at stated concentration ([2]; 0.08%): soluble
equilibrium solubility at stated concentration ([2]; 0.10%): insoluble
equilibrium solubility at stated concentration ([2]; 0.15%): insoluble
equilibrium solubility at stated concentration ([2]; 0.20%): insoluble
equilibrium solubility ([2]; after 80° C. for 15 minutes, at room temperature, up to 4 days): 0.08%
Products (UGT 76G1 and EUGT11): Rebaudioside M, various
sweetness characteristics [3]: slow onset of sweetness and was very clean
times sweeter than sucrose (sugar) [3]: 200-220 times
amount that can be solubilized in water ([4]; 23° C.): 300 to 450 ppm
aqueous solubility in words [4]: low solubility in water at room temperature
